This note sets out measurements from patent US9676760B2, “Fused heterocyclic compounds as ion channel modulators” (Gilead Sciences, Inc., priority 2011, dated 2017).

Test [1] concerns the target T1, wild-type human cardiac sodium channel, hNav1.5 (Homo sapiens, UniProt Q14524). Kind of test: Late INa screening assay (QPatch whole cell patch clamp, HEK293). It is filed as cell-based. Put shortly: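 HEK293 stably expressing hNav1.5 without beta subunits, recorded at 23-25° C. Late current was induced by 10 μM tefluthrin. Cells were depolarized from −120 mV to −20 mV for 250 ms at 0.1 Hz. Compounds were tested at 1 μM in extracellular solution, with baseline taken in 0Na-ECF; output is percent block of late INa.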
On the technique in general: The patch-clamp technique gives a direct electrical read-out from membranes.

Test [2] addresses T1, wild-type human cardiac sodium channel, hNav1.5. Kind of test: Peak INa screening assay (tonic and use-dependent block). It is filed as cell-based. The following applies: compound at 1 μM. The procedure:
The late sodium current (Late INa) and peak sodium current (Peak INa) assays are performed on an automated electrophysiology platform, QPatch 16× (Sophion Bioscience, Copenhagen, Denmark), which uses the whole cell patch clamp technique to measure currents through the cell membrane of up to 16 cells at a time. The assay uses an HEK293 (human embryonic kidney) cell line heterologously expressing the wild-type human cardiac sodium channel, hNav1.5, purchased from Millipore (Billerica, Mass.). No beta subunits were coexpressed with the Na channel alpha subunit. Cells are maintained with standard tissue culture procedures and stable channel expression is maintained with 400 μg/mL Geneticin in the culture medium. Cells isolated for use on QPatch are incubated for 5 minutes in Detachin 1×(Genlantis, San Diego, USA) at 37° C. to ensure that 80-90% of the cells are single and not part of a cell cluster. Experiments are carried out at 23-25° C.
For both the Late INa and Peak INa assays, series resistance compensation is set to 100% and series resistance and whole-cell compensation are performed automatically. Currents are digitized at 25 kHz and low-pass filtered at 12 kHz and 10 kHz for the late and peak INa assays, respectively. Currents through open sodium channels are automatically recorded and stored in the Sophion Bioscience Oracle database (Sophion Bioscience, Copenhagen, Denmark). Analysis is performed using QPatch Assay and database software and data are compiled in Excel.
Compound stocks are routinely made by the Gilead Sample Bank in plastic vials to 10 mM in dimethyl sulfoxide (DMSO). In some cases, when compounds are not soluble in DMSO, they are made in 100% ethanol. Stocks are sonicated as necessary. The extracellular solution for screening Late INa is composed of: 140 mM NaCl, 4 mM KCl, 1.8 mM CaCl2, 0.75 mM MgCl2 and 5 mM HEPES with pH adjusted to 7.4 using NaOH. The intracellular solution used to perfuse the inside of the cells for both the Late INa and Peak INa assays contains: 120 mM CsF, 20 mM CsCl, 5 mM EGTA, 5 mM HEPES and pH adjusted to 7.4 with CsOH. Compounds are diluted in extracellular solution to 1 μM in glass vials and then transferred to glass well plates before robotic addition to the cells. The 0 mM Na extracellular solution (0Na-ECF) used at the end of each experiment for the Late INa and Peak INa assays to measure baseline current contains: 140 mM N-methyl-D-glucamine; 4 mM KCl; 1.8 mM CaCl2; 0.75 mM MgCl2; 5 mM HEPES and pH was adjusted to 7.4 with HCl.
Compounds were also evaluated for their effect in several other assays, including their effect on Peak INa. […] Since the peak INa in the cells used herein can be very large, introducing artifacts in the recording, the concentration of Na^+ in the bath can be reduced to 20 mM and a nonpermeant cation added to compensate for the Na^+ that was removed to maintain the osmolarity and ionic strength of the solution (see solution details below).
A low stimulation frequency of 0.1 Hz was used to determine the effect of the test compound when the channel spent most of the time in the resting (closed) state and provides information about Tonic Block (TB). A higher stimulation frequency (3 Hz) was used to measure block of the channel when it spent more time in the activated and inactivated states and provided a measure of Use-Dependent Block (UDB). Use-dependent block refers to the accumulation of block with increased frequency of channel activation.

Where [3] appears, read: HEK293, percent block of late INa, compound at 1 μM, 10 μM Tefluthrin, read-out: Late INa 1 μM.
[4] abbreviates: tonic block of peak INa, 0.1 Hz, read-out: Peak TB 1 μM.
[5] abbreviates: use-dependent block of peak INa, 3 Hz, read-out: Peak UDB 1 μM.

T1 sequence (Q14524 whole entry): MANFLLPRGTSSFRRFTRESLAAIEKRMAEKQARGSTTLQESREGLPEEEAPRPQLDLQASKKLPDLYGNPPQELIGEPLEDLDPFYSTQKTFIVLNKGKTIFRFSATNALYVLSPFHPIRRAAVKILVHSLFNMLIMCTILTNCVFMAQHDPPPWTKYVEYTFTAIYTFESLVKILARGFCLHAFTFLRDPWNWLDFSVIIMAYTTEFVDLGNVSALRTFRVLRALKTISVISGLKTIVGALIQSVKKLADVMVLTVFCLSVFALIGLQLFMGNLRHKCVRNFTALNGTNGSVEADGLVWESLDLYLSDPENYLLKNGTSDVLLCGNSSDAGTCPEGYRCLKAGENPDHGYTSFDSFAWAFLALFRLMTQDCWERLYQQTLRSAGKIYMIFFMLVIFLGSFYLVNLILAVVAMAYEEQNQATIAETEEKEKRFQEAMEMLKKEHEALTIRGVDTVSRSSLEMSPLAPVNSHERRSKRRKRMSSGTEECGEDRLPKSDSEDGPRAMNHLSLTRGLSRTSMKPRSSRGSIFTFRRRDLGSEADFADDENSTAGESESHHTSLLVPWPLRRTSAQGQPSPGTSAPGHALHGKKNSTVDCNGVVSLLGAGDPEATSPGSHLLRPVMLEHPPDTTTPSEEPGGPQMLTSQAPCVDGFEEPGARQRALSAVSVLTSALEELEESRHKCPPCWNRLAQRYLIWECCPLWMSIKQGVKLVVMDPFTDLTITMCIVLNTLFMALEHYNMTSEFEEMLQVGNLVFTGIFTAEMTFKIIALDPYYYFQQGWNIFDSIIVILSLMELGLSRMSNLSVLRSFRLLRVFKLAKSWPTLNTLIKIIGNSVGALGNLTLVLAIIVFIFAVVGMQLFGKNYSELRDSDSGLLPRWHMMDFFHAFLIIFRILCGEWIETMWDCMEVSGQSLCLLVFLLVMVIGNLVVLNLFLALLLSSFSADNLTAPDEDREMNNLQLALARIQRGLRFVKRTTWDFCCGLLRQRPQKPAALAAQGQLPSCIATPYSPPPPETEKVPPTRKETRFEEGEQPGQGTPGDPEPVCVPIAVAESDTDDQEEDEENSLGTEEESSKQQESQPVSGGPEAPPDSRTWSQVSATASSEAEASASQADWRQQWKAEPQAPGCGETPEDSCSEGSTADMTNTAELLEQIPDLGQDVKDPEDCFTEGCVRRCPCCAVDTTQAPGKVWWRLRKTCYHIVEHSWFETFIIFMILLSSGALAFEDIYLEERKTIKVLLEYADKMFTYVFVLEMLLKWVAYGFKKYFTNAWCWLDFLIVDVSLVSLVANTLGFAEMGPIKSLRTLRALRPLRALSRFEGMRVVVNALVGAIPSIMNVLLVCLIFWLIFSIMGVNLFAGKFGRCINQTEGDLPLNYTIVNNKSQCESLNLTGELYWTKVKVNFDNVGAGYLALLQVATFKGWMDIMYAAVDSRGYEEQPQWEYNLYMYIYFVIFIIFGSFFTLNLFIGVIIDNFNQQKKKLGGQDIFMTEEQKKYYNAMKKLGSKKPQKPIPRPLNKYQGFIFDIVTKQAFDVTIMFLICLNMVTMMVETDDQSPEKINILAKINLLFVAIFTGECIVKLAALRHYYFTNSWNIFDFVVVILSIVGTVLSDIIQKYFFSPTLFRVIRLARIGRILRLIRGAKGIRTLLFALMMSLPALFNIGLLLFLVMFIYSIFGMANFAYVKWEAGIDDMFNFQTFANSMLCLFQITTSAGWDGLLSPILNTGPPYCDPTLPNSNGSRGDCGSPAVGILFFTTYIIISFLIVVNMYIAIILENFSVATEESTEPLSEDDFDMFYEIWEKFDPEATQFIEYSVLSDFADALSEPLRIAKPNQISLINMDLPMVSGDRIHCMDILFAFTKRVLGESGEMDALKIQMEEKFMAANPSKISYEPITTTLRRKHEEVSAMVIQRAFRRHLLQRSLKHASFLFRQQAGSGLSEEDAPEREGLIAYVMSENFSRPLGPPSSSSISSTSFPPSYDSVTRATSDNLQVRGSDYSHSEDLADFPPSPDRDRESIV

For `Cc1cnn(CN2CCOc3ccc(-c4ccc(OC(F)(F)F)cc4)cc3C2=O)c1` [II-155, 4-((4-methyl-1H-pyrazol-1-yl)methyl)-7-(4-(trifluoromethoxy)phenyl)-3,4-dihydrobenzo[f][1,4]oxazepin-5(2H)-one], the inhibition at 1 µM amounted to 38% in test [1] (setting [3]), 13% in test [2] (setting [4]) and 11% in test [2] (setting [5]).

Take `O=C1c2cc(-c3ccc(OC(F)(F)F)cc3)ccc2OCCN1Cn1cc(Cl)cn1` [II-156, 4-((4-chloro-1H-pyrazol-1-yl)methyl)-7-(4-(trifluoromethoxy)phenyl)-3,4-dihydrobenzo[f][1,4]oxazepin-5(2H)-one]: the inhibition at 1 µM in test [1] (HEK293, % Inhibition at 1 uM, read-out: Late INa*) was 48%; in test [1] (setting [3]) it was 48%; in test [2] (setting [4]), 23%; in test [2] (setting [5]), 13%.

On to `O=C1c2cc(-c3ccc(C(F)F)cc3)ccc2OCCN1Cc1ccccn1` [II-157, 7-(4-(difluoromethyl)phenyl)-4-(pyridin-2-ylmethyl)-3,4-dihydrobenzo[f][1,4]oxazepin-5(2H)-one], for which the inhibition at 1 µM is 43% in test [1] (setting [3]), 13% in test [2] (setting [4]) and 16% in test [2] (setting [5]).

Consider `O=C1c2cc(-c3ccc(Cl)c(F)c3)ccc2OCCN1Cc1ccccn1` [II-158, 7-(4-chloro-3-fluorophenyl)-4-(pyridin-2-ylmethyl)-3,4-dihydrobenzo[f][1,4]oxazepin-5(2H)-one], for which the figures for the inhibition at 1 µM in test [1] (setting [3]), in test [2] (setting [4]) and in test [2] (setting [5]) were 58%, 34% and 26%, respectively.

Consider `O=C1c2cc(-c3ccc(OC(F)(F)F)cc3)cc(F)c2OCCN1Cc1ccccc1` [II-165, 4-benzyl-9-fluoro-7-(4-(trifluoromethoxy)phenyl)-3,4-dihydrobenzo[f][1,4]oxazepin-5(2H)-one], for which the inhibition at 1 µM in test [1] (setting [3]) came out at 56%; in test [2] (setting [4]) it was 15%; in test [2] (setting [5]), 30%.

In the case of `O=C1c2cc(-c3ccc(C(F)(F)F)cc3)cc(F)c2OCCN1Cc1ccccc1` [II-166, 4-benzyl-9-fluoro-7-(4-(trifluoromethyl)phenyl)-3,4-dihydrobenzo[f][1,4]oxazepin-5(2H)-one], the inhibition at 1 µM in test [1] (setting [3]) stood at 53%; in test [2] (setting [4]), 20%; in test [2] (setting [5]), 34%.

Take `O=C1c2cc(-c3ccc(OC(F)(F)F)cc3)c(F)cc2OCCN1Cc1ccccc1` [II-167, 4-benzyl-8-fluoro-7-(4-(trifluoromethoxy)phenyl)-3,4-dihydrobenzo[f][1,4]oxazepin-5(2H)-one]: the inhibition at 1 µM in test [1] (setting [3]) is 56%; in test [2] (setting [4]) it was 20%; in test [2] (setting [5]), 25%.

For the molecule `O=C1c2cc(-c3ccc(C(F)(F)F)cc3)c(F)cc2OCCN1Cc1ccccc1` [II-168, 4-benzyl-8-fluoro-7-(4-(trifluoromethyl)phenyl)-3,4-dihydrobenzo[f][1,4]oxazepin-5(2H)-one], the inhibition at 1 µM in test [1] (setting [3]) worked out at 44%; in test [2] (setting [4]) it was 36%; in test [2] (setting [5]), 47%.

As for `O=C1c2cc(-c3ccc(Cl)c(F)c3)ccc2OCCN1Cc1ncccc1F` [II-169, 7-(4-chloro-3-fluorophenyl)-4-((3-fluoropyridin-2-yl)methyl)-3,4-dihydrobenzo[f][1,4]oxazepin-5(2H)-one], the inhibition at 1 µM in test [1] (setting [3]) was 65%; in test [2] (setting [4]) it was 23%; in test [2] (setting [5]), 23%.

With `O=C1c2cc(-c3ccc(C(F)(F)F)cc3F)ccc2OCCN1Cc1ncccc1F` [II-170, 7-(2-fluoro-4-(trifluoromethyl)phenyl)-4-((3-fluoropyridin-2-yl)methyl)-3,4-dihydrobenzo[f][1,4]oxazepin-5(2H)-one], the inhibition at 1 µM stood at 66% in test [1] (setting [3]), 36% in test [2] (setting [4]) and 31% in test [2] (setting [5]).

For `Cc1cncc(CN2CCOc3ccc(-c4ccc(OC(F)(F)F)cc4)cc3C2=O)n1` [II-175, 4-((6-methylpyrazin-2-yl)methyl)-7-(4-(trifluoromethoxy)phenyl)-3,4-dihydrobenzo[f][1,4]oxazepin-5(2H)-one], the inhibition at 1 µM amounted to 53% in test [1] (setting [3]), 21% in test [2] (setting [4]) and 16% in test [2] (setting [5]).

As for `O=C1c2cc(-c3ccc(C(F)(F)F)cc3)ccc2OCCN1Cc1ncccc1F` [II-176, 4-((3-fluoropyridin-2-yl)methyl)-7-(4-(trifluoromethyl)phenyl)-3,4-dihydrobenzo[f][1,4]oxazepin-5(2H)-one], the figures for the inhibition at 1 µM in test [1] (setting [3]), in test [2] (setting [4]) and in test [2] (setting [5]) were 68%, 45% and 44%, respectively.

On to `Cn1ccnc1CN1CCOc2ccc(-c3ccc(OC(F)(F)F)cc3)cc2C1=O` [II-186, 4-((1-methyl-1H-imidazol-2-yl)methyl)-7-(4-(trifluoromethoxy)phenyl)-3,4-dihydrobenzo[f][1,4]oxazepin-5(2H)-one], for which the inhibition at 1 µM in test [1] (setting [3]) was 55%; in test [2] (setting [4]) it was 20%; in test [2] (setting [5]), 30%.

Consider `O=C1c2cc(-c3ccc(OC(F)(F)F)cc3)ccc2OCCN1Cc1nccn1Cc1ccccc1` [II-187], for which the values for the inhibition at 1 µM in test [1] (setting [3]), in test [2] (setting [4]) and in test [2] (setting [5]) were 62%, 9% and 21%, respectively.

With `O=C1c2cc(-c3ccc(OC(F)(F)F)cc3)ccc2OCCN1Cc1cn2ccccc2n1` [II-189, 4-(imidazo[1,2-a]pyridin-2-ylmethyl)-7-(4-(trifluoromethoxy)phenyl)-3,4-dihydrobenzo[f][1,4]oxazepin-5(2H)-one], the inhibition at 1 µM in test [1] (setting [3]) is 53%; in test [2] (setting [4]) it was 23%; in test [2] (setting [5]), 28%.

As to `Cn1cc(C(=O)N2CCOc3ccc(-c4ccc(OC(F)(F)F)cc4)cc3C2)cn1` [III-12, (1-methyl-1H-pyrazol-4-yl)(7-(4-(trifluoromethoxy)phenyl)-2,3-dihydrobenzo[f][1,4]oxazepin-4(5H)-yl)methanone], the inhibition at 1 µM amounted to 39% in test [1] (setting [3]), 10% in test [2] (setting [4]) and 17% in test [2] (setting [5]).

Consider `O=C(c1cc[nH]n1)N1CCOc2ccc(-c3ccc(OC(F)(F)F)cc3)cc2C1` [III-15, (1H-pyrazol-3-yl)(7-(4-(trifluoromethoxy)phenyl)-2,3-dihydrobenzo[f][1,4]oxazepin-4(5H)-yl)methanone], for which the values for the inhibition at 1 µM in test [1] (setting [3]), in test [2] (setting [4]) and in test [2] (setting [5]) were 50%, 19% and 18%, respectively.

Regarding `O=C(Cc1ccccn1)N1CCOc2ccc(-c3ccc(C(F)(F)F)cc3)cc2C1` [III-29, 2-(pyridin-2-yl)-1-(7-(4-(trifluoromethyl)phenyl)-2,3-dihydrobenzo[f][1,4]oxazepin-4(5H)-yl)ethanone], the inhibition at 1 µM in test [1] (setting [3]) worked out at 48%; in test [2] (setting [4]), 11%; in test [2] (setting [5]), 14%.

Take `O=C1c2cc(-c3ccc(C(F)(F)F)s3)ccc2OCCN1Cc1ccccn1` [VI-31, 4-(pyridin-2-ylmethyl)-7-(5-(trifluoromethyl)thiophen-2-yl)-3,4-dihydrobenzo[f][1,4]oxazepin-5(2H)-one]: the inhibition at 1 µM in test [1] (setting [3]) was found to be 61%; in test [2] (setting [4]), 50%; in test [2] (setting [5]), 42%.

Regarding `O=C1c2cc(-c3ccc(C4CC4)s3)ccc2OCCN1Cc1ccccn1` [VI-32, 7-(5-cyclopropylthiophen-2-yl)-4-(pyridin-2-ylmethyl)-3,4-dihydrobenzo[f][1,4]oxazepin-5(2H)-one], the inhibition at 1 µM in test [1] (setting [3]) turned out to be 66%; in test [2] (setting [4]), 28%; in test [2] (setting [5]), 26%.
